Measurements: article PMC4457528, “Identification of Novel Small Molecule Inhibitors of Oncogenic RET Kinase” (PLoS ONE, 2015)
Like-named read-outs stand apart in the source and are kept apart here.

What was measured:
Experiment in all cases: KinomeScan kinase panel, single concentration 10 µM
Assay type in all cases: binding
KinomeScan kinase panel [1] = target: T1, KinomeScan kinase panel (Homo sapiens, UniProt O95819); details: MAP4K4, 10 µM; read-out: score (%)
T1 construct: purchased DiscoveRx (KinomeScan)

KinomeScan kinase panel [2] = target: T2, KinomeScan kinase panel (Homo sapiens, UniProt P00533); details: EGFR, 10 µM
T2 construct: purchased DiscoveRx (KinomeScan)

KinomeScan kinase panel [3] = target: T3, KinomeScan kinase panel (Homo sapiens, UniProt Q8N5S9); details: CAMKK1, 10 µM; read-out: score (%)
T3 construct: purchased DiscoveRx (KinomeScan)

KinomeScan kinase panel [4] = target: T4, KinomeScan kinase panel (Homo sapiens, UniProt Q16832); details: DDR2, 10 µM; read-out: score (%)
T4 construct: purchased DiscoveRx (KinomeScan)
T4 sequence (Q16832 22-855): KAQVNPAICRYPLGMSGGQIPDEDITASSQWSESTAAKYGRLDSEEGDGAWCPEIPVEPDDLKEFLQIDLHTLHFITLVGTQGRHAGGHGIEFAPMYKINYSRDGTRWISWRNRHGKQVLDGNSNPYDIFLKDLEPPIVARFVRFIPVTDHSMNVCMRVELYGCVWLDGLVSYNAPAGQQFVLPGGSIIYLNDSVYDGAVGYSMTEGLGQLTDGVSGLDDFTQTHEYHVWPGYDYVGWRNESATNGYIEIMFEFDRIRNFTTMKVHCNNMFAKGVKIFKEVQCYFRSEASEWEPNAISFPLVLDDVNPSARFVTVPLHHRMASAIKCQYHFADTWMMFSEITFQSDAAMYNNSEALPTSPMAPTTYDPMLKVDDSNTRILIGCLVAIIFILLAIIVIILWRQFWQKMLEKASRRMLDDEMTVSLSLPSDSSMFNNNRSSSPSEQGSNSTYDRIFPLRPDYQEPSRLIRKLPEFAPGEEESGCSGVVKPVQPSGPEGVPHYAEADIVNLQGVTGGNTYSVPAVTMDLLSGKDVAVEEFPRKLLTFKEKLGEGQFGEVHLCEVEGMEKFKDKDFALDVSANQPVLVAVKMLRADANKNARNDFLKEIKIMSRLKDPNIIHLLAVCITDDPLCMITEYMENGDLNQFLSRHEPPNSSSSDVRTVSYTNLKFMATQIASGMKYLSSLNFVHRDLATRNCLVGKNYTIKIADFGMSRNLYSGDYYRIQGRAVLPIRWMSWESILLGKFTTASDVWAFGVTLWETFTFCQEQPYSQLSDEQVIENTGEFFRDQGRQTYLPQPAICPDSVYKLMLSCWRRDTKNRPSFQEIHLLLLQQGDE

KinomeScan kinase panel [5] = target: T5, KinomeScan kinase panel (Homo sapiens, UniProt Q32MK0); details: MLCK, 10 µM; read-out: score (%)
T5 construct: purchased DiscoveRx (KinomeScan)
T5 sequence (Q32MK0 1-819): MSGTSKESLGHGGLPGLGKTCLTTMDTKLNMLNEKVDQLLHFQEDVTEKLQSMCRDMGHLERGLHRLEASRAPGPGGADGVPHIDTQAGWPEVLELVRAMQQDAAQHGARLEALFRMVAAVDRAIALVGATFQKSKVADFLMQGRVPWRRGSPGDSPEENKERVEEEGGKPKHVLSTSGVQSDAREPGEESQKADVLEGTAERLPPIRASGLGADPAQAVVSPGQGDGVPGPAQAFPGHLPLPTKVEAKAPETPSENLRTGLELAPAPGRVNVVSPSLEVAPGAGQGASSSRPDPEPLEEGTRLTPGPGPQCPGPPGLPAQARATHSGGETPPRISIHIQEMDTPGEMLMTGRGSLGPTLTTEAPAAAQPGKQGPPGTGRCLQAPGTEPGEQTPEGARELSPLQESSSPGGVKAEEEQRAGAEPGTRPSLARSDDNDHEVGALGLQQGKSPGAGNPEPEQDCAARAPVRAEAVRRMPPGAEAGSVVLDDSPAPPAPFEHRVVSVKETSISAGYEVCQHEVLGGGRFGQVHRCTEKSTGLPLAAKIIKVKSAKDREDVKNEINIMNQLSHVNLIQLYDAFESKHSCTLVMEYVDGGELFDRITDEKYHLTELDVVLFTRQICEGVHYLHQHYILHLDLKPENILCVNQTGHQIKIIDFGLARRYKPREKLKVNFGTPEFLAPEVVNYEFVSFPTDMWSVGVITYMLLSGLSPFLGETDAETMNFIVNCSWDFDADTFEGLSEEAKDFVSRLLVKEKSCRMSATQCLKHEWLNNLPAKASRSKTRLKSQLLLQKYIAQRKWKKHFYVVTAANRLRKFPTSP

KinomeScan kinase panel [6] = target: T6, KinomeScan kinase panel (Homo sapiens, UniProt O00444); details: read-out: score (%)
T6 construct: purchased DiscoveRx (KinomeScan)
T6 sequence (O00444 1-970): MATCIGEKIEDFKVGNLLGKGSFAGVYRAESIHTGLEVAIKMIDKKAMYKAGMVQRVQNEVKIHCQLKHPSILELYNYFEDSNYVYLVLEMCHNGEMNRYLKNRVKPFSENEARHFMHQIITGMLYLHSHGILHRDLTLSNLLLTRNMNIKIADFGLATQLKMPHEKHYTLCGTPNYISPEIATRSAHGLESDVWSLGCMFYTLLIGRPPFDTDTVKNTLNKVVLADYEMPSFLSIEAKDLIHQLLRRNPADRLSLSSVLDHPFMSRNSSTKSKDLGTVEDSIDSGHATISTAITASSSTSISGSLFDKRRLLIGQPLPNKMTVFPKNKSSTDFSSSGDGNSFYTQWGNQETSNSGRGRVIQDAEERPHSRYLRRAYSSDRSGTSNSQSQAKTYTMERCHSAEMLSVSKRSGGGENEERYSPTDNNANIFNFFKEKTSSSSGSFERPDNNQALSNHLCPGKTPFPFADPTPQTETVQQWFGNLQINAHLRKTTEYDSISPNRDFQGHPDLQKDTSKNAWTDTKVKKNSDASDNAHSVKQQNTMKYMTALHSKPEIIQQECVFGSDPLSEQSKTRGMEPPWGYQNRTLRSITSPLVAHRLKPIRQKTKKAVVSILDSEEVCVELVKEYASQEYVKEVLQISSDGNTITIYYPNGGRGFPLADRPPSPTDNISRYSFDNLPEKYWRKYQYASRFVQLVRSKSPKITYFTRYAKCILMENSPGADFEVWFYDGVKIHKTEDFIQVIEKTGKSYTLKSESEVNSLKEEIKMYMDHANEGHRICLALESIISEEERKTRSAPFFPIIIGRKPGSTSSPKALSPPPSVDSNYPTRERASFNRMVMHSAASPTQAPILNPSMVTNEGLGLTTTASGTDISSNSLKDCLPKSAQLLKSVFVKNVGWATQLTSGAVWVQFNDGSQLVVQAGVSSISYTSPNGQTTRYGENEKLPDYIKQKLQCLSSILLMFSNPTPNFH

T1 sequence (O95819 whole entry): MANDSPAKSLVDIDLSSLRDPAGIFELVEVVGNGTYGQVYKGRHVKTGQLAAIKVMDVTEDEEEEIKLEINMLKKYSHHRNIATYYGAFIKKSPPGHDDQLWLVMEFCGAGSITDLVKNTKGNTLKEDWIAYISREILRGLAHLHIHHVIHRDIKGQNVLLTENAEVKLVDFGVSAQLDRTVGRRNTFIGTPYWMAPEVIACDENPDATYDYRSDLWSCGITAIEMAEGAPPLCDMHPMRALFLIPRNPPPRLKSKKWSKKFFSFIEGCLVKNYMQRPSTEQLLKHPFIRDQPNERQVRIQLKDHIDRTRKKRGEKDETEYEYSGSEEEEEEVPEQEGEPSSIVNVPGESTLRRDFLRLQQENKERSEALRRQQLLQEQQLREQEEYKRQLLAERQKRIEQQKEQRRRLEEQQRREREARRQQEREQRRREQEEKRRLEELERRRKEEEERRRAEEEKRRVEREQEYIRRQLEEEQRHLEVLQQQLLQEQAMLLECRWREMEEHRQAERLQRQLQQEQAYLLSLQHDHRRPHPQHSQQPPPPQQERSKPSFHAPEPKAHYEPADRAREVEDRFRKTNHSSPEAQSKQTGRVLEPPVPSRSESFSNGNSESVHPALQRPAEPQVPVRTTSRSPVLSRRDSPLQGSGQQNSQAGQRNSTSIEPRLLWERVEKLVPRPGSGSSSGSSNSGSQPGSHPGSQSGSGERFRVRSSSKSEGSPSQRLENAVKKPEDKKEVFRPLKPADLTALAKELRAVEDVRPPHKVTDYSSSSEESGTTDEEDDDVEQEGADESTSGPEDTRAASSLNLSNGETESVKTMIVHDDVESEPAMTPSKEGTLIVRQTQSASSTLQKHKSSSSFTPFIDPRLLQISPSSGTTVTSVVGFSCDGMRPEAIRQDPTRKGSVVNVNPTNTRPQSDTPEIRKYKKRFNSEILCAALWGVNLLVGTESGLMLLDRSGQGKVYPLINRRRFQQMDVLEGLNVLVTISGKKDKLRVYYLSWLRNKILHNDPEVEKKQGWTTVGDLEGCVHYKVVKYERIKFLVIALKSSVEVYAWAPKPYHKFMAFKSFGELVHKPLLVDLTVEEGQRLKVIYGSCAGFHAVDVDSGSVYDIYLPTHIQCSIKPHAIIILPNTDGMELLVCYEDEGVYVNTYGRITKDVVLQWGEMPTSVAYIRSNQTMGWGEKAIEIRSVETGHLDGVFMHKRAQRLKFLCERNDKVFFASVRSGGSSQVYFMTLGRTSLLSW
T3 sequence (Q8N5S9 whole entry): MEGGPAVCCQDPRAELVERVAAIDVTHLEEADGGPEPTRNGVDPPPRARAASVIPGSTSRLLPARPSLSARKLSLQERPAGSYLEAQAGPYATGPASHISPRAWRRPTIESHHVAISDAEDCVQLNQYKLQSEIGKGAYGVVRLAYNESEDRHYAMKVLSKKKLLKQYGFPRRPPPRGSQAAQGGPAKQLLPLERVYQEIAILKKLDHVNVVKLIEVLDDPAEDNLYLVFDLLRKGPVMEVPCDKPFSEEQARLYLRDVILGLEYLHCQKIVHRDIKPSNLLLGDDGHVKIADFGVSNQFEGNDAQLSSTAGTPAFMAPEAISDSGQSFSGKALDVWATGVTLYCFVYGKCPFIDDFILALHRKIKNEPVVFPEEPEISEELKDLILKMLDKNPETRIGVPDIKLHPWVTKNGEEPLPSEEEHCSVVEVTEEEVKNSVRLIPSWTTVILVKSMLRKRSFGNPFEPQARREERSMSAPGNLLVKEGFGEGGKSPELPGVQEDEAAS
T2 sequence (P00533 25-1210): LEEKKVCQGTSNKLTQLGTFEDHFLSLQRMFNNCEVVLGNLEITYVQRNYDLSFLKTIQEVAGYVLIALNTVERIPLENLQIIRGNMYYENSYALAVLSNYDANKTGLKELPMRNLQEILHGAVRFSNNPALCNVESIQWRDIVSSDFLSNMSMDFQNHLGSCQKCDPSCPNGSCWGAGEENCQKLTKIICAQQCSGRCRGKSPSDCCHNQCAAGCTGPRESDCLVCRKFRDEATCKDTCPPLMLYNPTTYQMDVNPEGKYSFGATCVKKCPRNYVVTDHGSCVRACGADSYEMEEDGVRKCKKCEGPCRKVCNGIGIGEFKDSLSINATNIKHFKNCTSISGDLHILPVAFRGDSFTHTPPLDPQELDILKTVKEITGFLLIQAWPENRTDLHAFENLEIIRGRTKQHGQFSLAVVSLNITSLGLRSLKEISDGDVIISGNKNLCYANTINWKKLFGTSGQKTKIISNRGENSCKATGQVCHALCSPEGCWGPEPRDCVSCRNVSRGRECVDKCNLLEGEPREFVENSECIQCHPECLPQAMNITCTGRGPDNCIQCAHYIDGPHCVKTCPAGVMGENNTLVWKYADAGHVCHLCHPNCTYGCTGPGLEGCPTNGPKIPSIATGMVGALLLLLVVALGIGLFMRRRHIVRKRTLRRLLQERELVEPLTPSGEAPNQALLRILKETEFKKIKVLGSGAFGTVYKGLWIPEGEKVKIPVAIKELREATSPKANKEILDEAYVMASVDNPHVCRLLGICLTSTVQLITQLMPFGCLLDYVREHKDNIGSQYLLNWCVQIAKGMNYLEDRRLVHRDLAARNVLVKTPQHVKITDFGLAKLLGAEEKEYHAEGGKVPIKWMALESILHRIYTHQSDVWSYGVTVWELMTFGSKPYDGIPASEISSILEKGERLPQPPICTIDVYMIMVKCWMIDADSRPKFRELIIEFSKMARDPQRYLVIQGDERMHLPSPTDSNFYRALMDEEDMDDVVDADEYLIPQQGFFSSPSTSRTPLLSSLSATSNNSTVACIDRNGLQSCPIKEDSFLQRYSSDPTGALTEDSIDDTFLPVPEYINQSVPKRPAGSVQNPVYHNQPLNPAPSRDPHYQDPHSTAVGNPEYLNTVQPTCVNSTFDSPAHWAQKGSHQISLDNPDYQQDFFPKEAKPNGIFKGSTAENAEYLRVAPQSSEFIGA

SMILES | remaining binding at 10 µM (KinomeScan kinase panel [1]) [%] | score (%) (KinomeScan kinase panel [2]) | remaining binding at 10 µM (KinomeScan kinase panel [3]) [%] | remaining binding at 10 µM (KinomeScan kinase panel [4]) [%] | remaining binding at 10 µM (KinomeScan kinase panel [5]) [%] | remaining binding at 10 µM (KinomeScan kinase panel [6]; PLK4, 10 µM) [%] | remaining binding at 10 µM (KinomeScan kinase panel [6]; kinase PLK4, 10 µM) [%]
CCN1CCN(Cc2ccc(NC(=O)c3ccc(C)c(NC(=O)c4cncc(-c5cccs5)c4)c3)cc2C(F)(F)F)CC1 [ALW-II-41-27] | 6.4 | 1.3 | 33 | 12 | > 30 | > 30 | 
CCN1CCN(Cc2ccc(NC(=O)c3ccc(C)c(/C=C/c4cnc5[nH]ccc5c4Cl)c3)cc2C(F)(F)F)CC1 [HG-6-63-01, (E)-3-(2-(4-chloro-1H-pyrrolo[2,3-b]pyridin-5-yl)vinyl)-N-(4-((4-ethylpiperazin-1-yl)methyl)-3-(trifluoromethyl)phenyl)-4-methylbenzamide] | 0.3 | 0.3 | > 30 | 0.8 | 5.9 | > 30 | 
CCN1CCN(Cc2ccc(NC(=O)c3ccc(C)c(C#Cc4cccnc4)c3)cc2C(F)(F)F)CC1 [XMD15-44] | 3.3 | 3 | > 30 | 1 | > 30 |  | 88
